Experimental data published in patent US20240278234A1, “SAMPLE PREPARATION” (priority 2021, published 2024).

System: SARS-CoV-2 target genes E gene, RdRP gene and human RP (positive control)
Assay: RT-qPCR amplification (YouSeq E-RdRP kit) in the presence of lysis agents: test for PCR inhibition
Type: biochemical
Details: for qPCR amplification curves, FIG. 4: 2%-0.2% agent; for qPCR amplification curves, FIG. 5: 0.2% and 0.06% agent; for inhibition of amplification (summary of FIGS. 4 and 5): agents tested at 2%, 0.6%, 0.2% and 0.02%, 45 cycles
Protocol: An E-RdRP kit from YouSeq was used, which is designed to detect SARS-CoV-2, and includes a positive control containing the SARS-CoV-2 target genes E gene, RdRP gene and human RP (as an internal control). Each reaction included: • 10 μL MasterMix • 1 μL Primer/Probe • 3 μL Water • 1 μL Template or Water • 5 μL Buffers
PCR was carried out under the following conditions: • 55 C for 10 mins RT Step • 95 C for 3 mins denaturation • x45 Cycles • 95 C for 15 secs • 60 C for 60 secs
Amplification was monitored using a Quantstudio Q5.

Compound | qPCR amplification curves, FIG. 4 | qPCR amplification curves, FIG. 5 | inhibition of amplification (summary of FIGS. 4 and 5)
CC(C)=CCCC(C)=CC=O [citral] | clear inhibitory effect between 2%-0.2% | no significant inhibition | inhibit at higher concentrations
[H]/N=C(\N/C(=N/[H])NCCCCCCNC(=N)NC(=N)Nc1ccc(Cl)cc1)Nc1ccc(Cl)cc1 [chlorhexidine] | Clear PCR inhibitions | no significant inhibition | inhibit at higher concentrations
